The values below come from patent US12404261B2, “Compounds and compositions for treating conditions associated with cGAS” (Novartis AG, priority 2020, dated 2025).

human truncated cGAS enzyme (147-522 human cGAS), sequence (Q8N884 147-522): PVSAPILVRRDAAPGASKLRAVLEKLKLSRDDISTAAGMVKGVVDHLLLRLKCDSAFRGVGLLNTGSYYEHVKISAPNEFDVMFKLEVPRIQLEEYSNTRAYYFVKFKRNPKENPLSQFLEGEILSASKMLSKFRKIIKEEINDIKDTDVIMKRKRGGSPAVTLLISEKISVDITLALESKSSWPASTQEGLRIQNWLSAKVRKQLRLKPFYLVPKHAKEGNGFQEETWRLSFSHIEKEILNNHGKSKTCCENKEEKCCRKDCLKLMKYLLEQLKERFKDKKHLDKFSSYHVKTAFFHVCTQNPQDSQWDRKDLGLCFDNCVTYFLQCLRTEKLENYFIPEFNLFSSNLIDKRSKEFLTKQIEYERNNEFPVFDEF

This assay addresses human truncated cGAS enzyme (147-522 human cGAS) (Homo sapiens (Human), UniProt Q8N884). Nature of the assay: Quantification of cGAS protein inhibition (cGAMP formation measured by LC-MS/MS). The assay is classed as biochemical. The note with it: reported for the potential mixture of co-existing tautomers and/or racemates. The procedure:
A reagent buffer was prepared in filtered and autoclaved water according to the following: • 50 mM Tris-buffer pH 7.5 (1 M Tris-buffer pH 7.5, Invitrogen, Cat. No. 15567-027); • 50 mM NaCl (5 M NaCl, Sodium Chloride Solution, Sigma, 59222C-); • 5 mM MgCl2 (1 M MgCl2, Sigma, M1028); • 0.1 mM ZnCl2 (Zinc Chloride [7646-85-7], powder, Cell Culture Tested, Sigma, Z-0152); and • 0.001% Tween 20 (TWEEN 20, Sigma Aldrich, P1379-).
A buffer for the cGAS enzyme was prepared in filtered and autoclaved water according to the following: • 50 mM Tris-buffer pH 7.5; • 5 mM MgCl2; and • 0.001% Tween 20.
Compounds were dispensed to a […]. The human truncated cGAS enzyme (4.2 mg/mL 147-522 human cGAS, MW 43,909 g/mol) was stored in 50 mM Tris, 500 mM NaCl, 5% (v/v) glycerol at pH 8 and diluted in the cGAS buffer enzyme shortly before use. The enzyme solution was transferred into the reagent buffer to give a final concentration of 30 nM. The reaction was started by mixing the enzyme with ISD (a 45 bp double stranded DNA, MW 27,670 g/mol, 5 mM), GTP and ATP to a final concentration of 5 μM, 0.5 mM and 0.5 mM respectively in a final volume of 10 μl. The reaction plates were then centrifuged at 1000 rpm for 1 minute and incubated at room temperature for 1 h. After 1 h of incubation, [^5Ns]-2′3′-cGAMP to a final concentration of 200 nM and 30 μL of 100% acetonitrile/0.175% of TFA were added to the reaction mixture. The plates were centrifuged at 1000 rpm for 1 minute before being sealed for 3 seconds at 170° C. using a ThermoScientific sealer (ALPS™ 50V) and an aluminum sealing cover (Pierce Seal, 4titude, Product Code: 4TI-0531).
The concentration of cGAMP was measured on a LC-MS/MS system consisting of a THERMO Dionex Ultimate LC system with a high pressure pump, an autosampler, a column heating compartment (Reinach, Switzerland) and a SCIEX Triple Quad 5500 (Framingham, MA, USA) mass spectrometer for detection. The sample plates were centrifuged for 10 minutes at 2000 rpm. Up to three plates were placed in the autosampler for injection. An aliquot of 10 μL of each sample was injected on an XBridge BEH Amide 3.5 μm, 2.1×50 mm column (P/N 186004859) with an XBridge BEH Amide 5 μm 2.1×5 mm VanGuard Cartridge (P/N 186007760) pre-column (both WATERS, MA, USA) held at 40° C. An isocratic flow of 1.0 mL/min solvent (60% ACN, 8 mM ammonium acetate, 5 mM ammonium hydroxide, 0.04% acetic acid) was applied and sprayed into the ion source of the mass spectrometers. The MS parameters were optimized based on the properties of the compounds to be detected and run in positive multi-reaction mode (MRM) based on the mass transitions. LC and MS parameters were also optimized to allow for a sample-to-sample measuring time of approximately 75 sec and a run time of 8 hours per 384-well plate. All data were analyzed with Excel; and the dose response curves were generated using the auto fitting function of XLfit. The IC50 was determined by plotting the cGAMP concentration ratio (cGAMP divided by the internal standard [^15Ns]-2′3′-cGAMP) versus the concentration of compound.
For `COCCc1nnc(-c2c(-n3ccnc3)c3cc(OC)c(Cl)c(F)c3n2C)[nH]1` [Example 52, 6-chloro-7-fluoro-3-(1H-imidazol-1-yl)-5-methoxy-2-(5-(2-methoxyethyl)-4H-1,2,4-triazol-3-yl)-1-methyl-1H-indole], the IC50 (usually the midpoint of a concentration-inhibition curve) is 206 nM. As for `COCC(O)c1nnc(-c2c(-n3ccnc3)c3cc(OC)c(Cl)c(C#N)c3n2C)[nH]1` (stereo not drawn) [Example 53, 6-chloro-2-(5-(1-hydroxy-2-methoxyethyl)-4H-1,2,4-triazol-3-yl)-3-(1H-imidazol-1-yl)-5-methoxy-1-methyl-1H-indole-7-carbonitrile], the figure is 66 nM; as for `COCc1nnc(-c2c(-n3ccnc3)c3cc(OC)c(Cl)c(C#N)c3n2C)[nH]1` [Example 54, 6-chloro-3-(1H-imidazol-1-yl)-5-methoxy-2-(5-(methoxymethyl)-4H-1,2,4-triazol-3-yl)-1-methyl-1H-indole-7-carbonitrile], 76 nM. The result for `COCC(F)(F)c1nnc(-c2c(-n3ccnc3)c3cc(OC)c(Cl)c(C#N)c3n2C)[nH]1` [Example 55, 6-chloro-2-(5-(1,1-difluoro-2-methoxyethyl)-4H-1,2,4-triazol-3-yl)-3-(1H-imidazol-1-yl)-5-methoxy-1-methyl-1H-indole-7-carbonitrile] reads 55 nM; that for `COc1cc2c(-n3ccnc3)c(-c3nnc(CS(C)(=O)=O)[nH]3)n(C)c2c(F)c1Cl` [Example 56, 6-Chloro-7-fluoro-3-(1H-imidazol-1-yl)-5-methoxy-1-methyl-2-(5-((methylsulfonyl)methyl)-4H-1,2,4-triazol-3-yl)-1H-indole], 56 nM. In the case of `COCC(=O)c1nnc(-c2[nH]c3c(F)c(Cl)c(OC)cc3c2-c2cn[nH]c2)[nH]1` [Example 57, 1-(5-(6-chloro-7-fluoro-5-methoxy-3-(1H-pyrazol-4-yl)-1H-indol-2-yl)-4H-1,2,4-triazol-3-yl)-2-methoxyethan-1-one], the IC50 stood at 30 nM. The result for `COc1cc2c(-c3cn[nH]c3)c(-c3nnc(F)[nH]3)n(C)c2c(F)c1Cl` [Example 58, 6-chloro-7-fluoro-2-(5-fluoro-4H-1,2,4-triazol-3-yl)-5-methoxy-1-methyl-3-(1H-pyrazol-4-yl)-1H-indole] reads 30 nM; that for `COc1cc2c(-c3cn[nH]c3)c(-c3nnc(N4CCOCC4)[nH]3)n(C)c2c(F)c1Cl` [Example 59, 4-(5-(6-chloro-7-fluoro-5-methoxy-1-methyl-3-(1H-pyrazol-4-yl)-1H-indol-2-yl)-4H-1,2,4-triazol-3-yl)morpholine], 78 nM; that for `COc1cc2c(-c3cn[nH]c3)c(-c3nnc(C(C)=O)[nH]3)n(C)c2c(F)c1Cl` [Example 60, 1-(5-(6-chloro-7-fluoro-5-methoxy-1-methyl-3-(1H-pyrazol-4-yl)-1H-indol-2-yl)-4H-1,2,4-triazol-3-yl)ethan-1-one], 32 nM.

In the case of `COc1cc2c(-c3cn[nH]c3)c(-c3nnc(N(C)C(C)=O)[nH]3)n(C)c2c(F)c1Cl` [Example 61, N-(5-(6-chloro-7-fluoro-5-methoxy-1-methyl-3-(1H-pyrazol-4-yl)-1H-indol-2-yl)-4H-1,2,4-triazol-3-yl)-N-methylacetamide], the half-maximal inhibitory concentration (IC50) was 41 nM. As for `COCC(=O)N(C)c1nnc(-c2c(-c3cn[nH]c3)c3cc(OC)c(Cl)c(F)c3n2C)[nH]1` [Example 62, N-(5-(6-chloro-7-fluoro-5-methoxy-1-methyl-3-(1H-pyrazol-4-yl)-1H-indo1-2-yl)-4H-1,2,4-triazol-3-yl)-2-methoxy-N-methylacetamide], the figure is 60 nM; as for `COc1cc2c(-c3cn[nH]c3)c(-c3nnc(N(C)CCO)[nH]3)n(C)c2c(F)c1Cl` [Example 63, 2-((5-(6-chloro-7-fluoro-5-methoxy-l-methyl-3-(1H-pyrazol-4-yl)-1H-indol-2-yl)-4H-1,2,4-triazol-3-yl)(methyl)amino)ethan-1-ol], 54 nM. As for `COCC(O)c1nnc(-c2c(-c3cn[nH]c3)c3cc(OC)c(Cl)c(F)c3n2C)[nH]1` (stereo not drawn) [Example 64, 1-(5-(6-chloro-7-fluoro-5-methoxy-1-methyl-3-(1H-pyrazol-4-yl)-1H-indol-2-yl)-4H-1,2,4-triazol-3-yl)-2-methoxyethan-1-ol], the figure is 52 nM; as for `COCC(F)(F)c1nnc(-c2[nH]c3c(F)c(Cl)c(OC)cc3c2-c2cn[nH]c2)[nH]1` [Example 65, 6-chloro-2-(5-(1,1-difluoro-2-methoxyethyl)-4H-1,2,4-triazol-3-yl)-7-fluoro-5-methoxy-3-(1H-pyrazol-4-yl)-1H-indole], 31 nM. As for `COCC(F)(F)c1nnc(-c2c(-c3cn[nH]c3)c3cc(OC)c(Cl)c(F)c3n2C)[nH]1` [Example 66, 6-chloro-2-(5-(1,1-difluoro-2-methoxyethyl)-4H-1,2,4-triazol-3-yl)-7-fluoro-5-methoxy-1-methyl-3-(1H-pyrazol-4-yl)-1H-indole], the figure is 30 nM; as for `COc1cc2c(-c3cn[nH]c3)c(-c3nnc(C(C)(F)F)[nH]3)[nH]c2c(F)c1Cl` [Example 67, 6-chloro-2-(5-(1,1-difluoroethyl)-4H-1,2,4-triazol-3-yl)-7-fluoro-5-methoxy-3-(1H-pyrazol-4-yl)-1H-indole], 30 nM; as for `COc1cc2c(-c3cn[nH]c3)c(-c3nnc(C(C)(F)F)[nH]3)n(C)c2c(F)c1Cl` [Example 68, 6-chloro-2-(5-(1,1-difluoroethyl)-4H-1,2,4-triazol-3-yl)-7-fluoro-5-methoxy-1-methyl-3-(1H-pyrazol-4-yl)-1H-indole], 33 nM.

Take `COc1cc2c(-c3cn[nH]c3)c(-c3nnc(C(F)(F)CO)[nH]3)n(C)c2c(F)c1Cl` [Example 69, 2-(5-(6-chloro-7-fluoro-5-methoxy-1-methyl-3-(1H-pyrazol-4-yl)-1H-indol-2-yl)-4H-1,2,4-triazol-3-yl)-2,2-difluoroethan-1-ol]: the half-inhibitory concentration (IC50) was 38 nM. In the case of `COCC(F)c1nnc(-c2c(-c3cn[nH]c3)c3cc(OC)c(Cl)c(F)c3n2C)[nH]1` (stereo not drawn) [Example 70, 6-chloro-7-fluoro-2-(5-(1-fluoro-2-methoxyethyl)-4H-1,2,4-triazol-3-yl)-5-methoxy-1-methyl-3-(1H-pyrazol-4-yl)-1H-indole], the concentration for half-maximal inhibition (IC50) was determined as 39 nM.

Take `COc1cc2c(-c3cn[nH]c3)c(-c3nnc(C(C)F)[nH]3)[nH]c2c(F)c1Cl` (stereo not drawn) [Example 71, 6-chloro-7-fluoro-2-(5-(1-fluoroethyl)-4H-1,2,4-triazol-3-yl)-5-methoxy-3-(1H-pyrazol-4-yl)-1H-indole]: the half-maximal inhibitory concentration (IC50) turned out to be 44 nM. Turning to `COc1cc2c(-c3cn[nH]c3)c(-c3nnc(C(C)F)[nH]3)n(C)c2c(F)c1Cl` (stereo not drawn) [Example 72, 6-chloro-7-fluoro-2-(5-(1-fluoroethyl)-4H-1,2,4-triazol-3-yl)-5-methoxy-1-methyl-3-(1H-pyrazol-4-yl)-1H-indole], the IC50 was 61 nM. As for `COCC(F)(F)c1nnc(-c2c(-c3cn[nH]c3)c3cc(OC)c(Cl)c(C#N)c3n2C)[nH]1` [Example 73, 6-chloro-2-(5-(1,1-difluoro-2-methoxyethyl)-4H-1,2,4-triazol-3-yl)-5-methoxy-1-methyl-3-(1H-pyrazol-4-yl)-1H-indole-7-carbonitrile], the figure is 30 nM; as for `CCOc1cc2c(-c3cn[nH]c3)c(-c3nnc(C(C)=O)[nH]3)n(C)c2c(F)c1Cl` [Example 74, 1-(5-(6-chloro-5-ethoxy-7-fluoro-1-methyl-3-(1H-pyrazol-4-yl)-1H-indo1-2-yl)-4H-1,2,4-triazol-3-yl)ethan-1-one], 210 nM; as for `Oc1cc(-c2c(-c3nnc(C(F)(F)F)[nH]3)[nH]c3c(Cl)c(Cl)ccc23)n[nH]1` [Example 76, 3-(6,7-dichloro-2-(5-(trifluoromethyl)-4H-1,2,4-triazol-3-yl)-1H-indol-3-yl)-1H-pyrazol-5-ol], 4210 nM.
